Measurements from ChEMBL document CHEMBL5230103, “Hydroxamic acid hybrids as the potential anticancer agents: An Overview” (Eur J Med Chem, 2020).
Converted amounts (≈) assume the structure as drawn. Where a name gives a salt, the structure may show the parent alone.

What was measured:
HepG2 = assay: Cytotoxicity against human HepG2 cells assessed as inhibition of cell growth by MTT assay; assay type: functional, cell-based
SMMC-7721 = assay: Cytotoxicity against human SMMC-7721 cells assessed as inhibition of cell growth by MTT assay; assay type: functional, cell-based
NCI-H460 = assay: Cytotoxicity against human NCI-H460 cells assessed as inhibition of cell growth by MTT assay; assay type: functional, cell-based
EJ = assay: Cytotoxicity against human EJ cells assessed as inhibition of cell growth by MTT assay; assay type: functional, cell-based
MCF7 [1] = assay: Cytotoxicity against human MCF7 cells assessed as inhibition of cell growth by MTT assay; assay type: functional, cell-based
PC-3 [2] = assay: Cytotoxicity against human PC-3 cells assessed as inhibition of cell growth by MTT assay; assay type: functional, cell-based
Histone deacetylase = assay: Inhibition of HDAC (unknown origin); assay type: protein assay, Homo sapiens
SW-620 [3] = assay: Cytotoxicity against human SW620 cells assessed as inhibition of cell growth by MTT assay; assay type: functional, cell-based
SW-620 [4] = assay: Potency index, ratio of vorinostat IC50 to test compound IC50 for cytotoxicity against human SW620 cells assessed as inhibition of cell growth by MTT assay; assay type: functional
PC-3 [5] = assay: Potency index, ratio of vorinostat IC50 to test compound IC50 for cytotoxicity against human PC-3 cells assessed as inhibition of cell growth by MTT assay; assay type: functional
NCI-H23 [6] = assay: Cytotoxicity against human NCI-H23 cells assessed as inhibition of cell growth by MTT assay; assay type: functional, cell-based
NCI-H23 [7] = assay: Potency index, ratio of vorinostat IC50 to test compound IC50 for cytotoxicity against human NCI-H23 cells assessed as inhibition of cell growth by MTT assay; assay type: functional
MDA-MB-231 [8] = assay: Antitumor activity against human MDA-MB-231 cells xenografted in mouse assessed as reduction on tumor volume at 20 mg/kg, ip relative to control; assay type: functional; design: scale not given: the % may be the effect or the level left
518A2 = assay: Cytotoxicity against human 518A2 cells assessed as inhibition of cell growth by MTT assay; assay type: functional, cell-based
HCT-116 = assay: Cytotoxicity against human HCT-116 cells assessed as inhibition of cell growth by MTT assay; assay type: functional, cell-based
PANC-1 = assay: Cytotoxicity against human PANC-1 cells assessed as inhibition of cell growth by MTT assay; assay type: functional, cell-based
HT-29 = assay: Cytotoxicity against human HT-29 cells assessed as inhibition of cell growth by MTT assay; assay type: functional, cell-based
[9] = Cytotoxicity against human MCF7/Topo cells assessed as inhibition of cell growth by MTT assay; assay type: functional, cell-based
KB-V1 = assay: Cytotoxicity against human vinblastine resistant KB-V1 cells assessed as inhibition of cell growth by MTT assay; assay type: functional, cell-based
[10] = Cytotoxicity against chicken heart fibroblast cells; assay type: toxicity, cell-based, Gallus gallus
Histone deacetylase 2 = Histone deacetylase 2 (Homo sapiens, UniProt Q92769); assay: Inhibition of HDAC2 (unknown origin)
ASPC1 = assay: Cytotoxicity against human ASPC1 cells assessed as inhibition of cell growth by MTT assay; assay type: functional, cell-based
HL-60 = assay: Antiproliferative activity against human HL-60 cells assessed as inhibition of cell growth by MTT assay; assay type: functional, cell-based
A549 = assay: Cytotoxicity against human A549 cells assessed as inhibition of cell growth by MTT assay; assay type: functional, cell-based
K562 = assay: Cytotoxicity against human K562 cells assessed as inhibition of cell growth by MTT assay; assay type: functional, cell-based
MDA-MB-231 [11] = assay: Cytotoxicity against human MDA-MB-231 cells assessed as inhibition of cell growth by MTT assay; assay type: functional, cell-based
MCF7 [12] = assay: Cytotoxicity against human MCF7 cells assessed as inhibition of cell growth by SRB assay; assay type: functional, cell-based
RPMI-8226 = assay: Cytotoxicity against human RPMI-8226 cells assessed as inhibition of cell growth by MTS assay; assay type: functional, cell-based
U-937 = assay: Cytotoxicity against human U-937 cells assessed as inhibition of cell growth by MTT assay; assay type: functional, cell-based
PLC-PRF-5 = assay: Cytotoxicity against human PLC-PRF-5 cells assessed as inhibition of cell growth by MTT assay; assay type: functional, cell-based
ES-2 = assay: Cytotoxicity against human ES2 cells assessed as inhibition of cell growth by MTT assay; assay type: functional, cell-based

Chain of Histone deacetylase 2 (Q92769 whole entry): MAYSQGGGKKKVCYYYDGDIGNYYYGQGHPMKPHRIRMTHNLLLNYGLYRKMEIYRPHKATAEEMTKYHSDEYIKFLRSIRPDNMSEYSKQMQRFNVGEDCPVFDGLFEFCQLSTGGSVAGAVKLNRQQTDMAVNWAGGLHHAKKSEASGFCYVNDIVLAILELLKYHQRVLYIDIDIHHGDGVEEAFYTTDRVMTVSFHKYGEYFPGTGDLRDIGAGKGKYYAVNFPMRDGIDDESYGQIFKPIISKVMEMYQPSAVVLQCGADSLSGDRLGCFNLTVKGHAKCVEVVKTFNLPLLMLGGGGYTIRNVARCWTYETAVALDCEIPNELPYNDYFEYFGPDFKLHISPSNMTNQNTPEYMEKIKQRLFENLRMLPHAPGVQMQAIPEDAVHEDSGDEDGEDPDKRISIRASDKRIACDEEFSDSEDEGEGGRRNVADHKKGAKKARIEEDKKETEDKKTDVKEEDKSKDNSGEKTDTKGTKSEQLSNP

With `CC(C)=CCC/C(C)=C/CC/C(C)=C/CSc1ccccc1C(=O)O` [SALIRASIB] as the molecule, how does the IC50 (HepG2) read?
The IC50 was 48.6 µM.

And the IC50 (SMMC-7721)?
The IC50 was 48.6 µM.

What about the IC50 (NCI-H460) of the same molecule?
The IC50 was 48.6 µM.

What about the IC50 (EJ) of the same molecule?
Its IC50 is 48.6 µM.

For `CC(C)=CCC/C(C)=C/CC/C(C)=C/CSc1ccccc1C(=O)NCCCC(=O)NO`, which IC50 (MCF7 [1]) is on record?
The IC50 was 4.93 µM.

What about the IC50 (HepG2) of the same molecule?
The IC50 was 4.93 µM.

What about the IC50 (SMMC-7721) of the same molecule?
The IC50 was 4.93 µM.

What about the IC50 (NCI-H460) of the same molecule?
The IC50 was 4.93 µM.

What about the IC50 (EJ) of the same molecule?
Its IC50 is 4.93 µM.

For `O=C(/C=C/c1ccc(Cn2cnc3cc(F)ccc3c2=O)cc1)NO`, which IC50 (PC-3 [2]) is on record?
Its IC50 is 0.62 µM.

And the IC50 (Histone deacetylase)?
The IC50 was 0.15 µM.

And the IC50 (SW-620 [3])?
The IC50 was 0.62 µM.

What about the “Ratio IC50” value (SW-620 [4]) of the same molecule?
Its value is >3.

And the “Ratio IC50” value (PC-3 [5])?
The value was >3.

And the IC50 (NCI-H23 [6])?
The IC50 was 0.62 µM.

And the “Ratio IC50” value (NCI-H23 [7])?
Its value is >3.

With `O=C(CCCCCCC(=O)Nc1cccc2ccn(S(=O)(=O)c3ccccc3)c12)NO` as the molecule, how does the Activity (MDA-MB-231 [8]) read?
The Activity was 68%.

Which results are given for `COc1ccc(-c2ncn(C)c2-c2ccc(/C=C/C(=O)NO)cc2)cc1`?
IC50 (518A2): 0.3 µM; IC50 (HCT-116): 0.3 µM; IC50 (PANC-1): 0.3 µM; IC50 (HT-29): 0.3 µM; IC50 [9]: 0.3 µM; IC50 (KB-V1): 0.3 µM; IC50 [10]: > 150 µM

With `O=C(CCCCCCN1C(=O)C2(OCCO2)c2cccc(Cl)c21)NO` as the molecule, how does the IC50 (PC-3 [2]) read?
The IC50 was 0.05 µM.

And the IC50 (Histone deacetylase 2)?
The IC50 was 0.03 µM.

And the IC50 (SW-620 [3])?
The IC50 was 0.05 µM.

And the IC50 (ASPC1)?
The IC50 was 0.05 µM.

With `C[C@H]1[C@@H](NC(=O)CCCCC(=O)NO)O[C@@H]2O[C@@]3(C)CC[C@H]4[C@H](C)CC[C@@H]1[C@@]24OO3` as the molecule, how does the IC50 (MCF7 [1]) read?
The IC50 was 1.28 µg/mL.

And the IC50 (HepG2)?
The IC50 was 1.28 µg/mL.

What about the IC50 (HL-60) of the same molecule?
The IC50 was 1.28 µg/mL (≈ 3 µM).

For `CC(C)c1ccc(C(C)c2nnc(NC(=O)CCC(=O)NO)s2)cc1` (stereo not drawn), which IC50 (A549) is on record?
Its IC50 is 14.7 µM.

And the IC50 (K562)?
The IC50 was 14.7 µM.

What about the IC50 (PC-3 [2]) of the same molecule?
Its IC50 is 14.7 µM.

What about the IC50 (MDA-MB-231 [11]) of the same molecule?
Its IC50 is 14.7 µM.

And the IC50 (Histone deacetylase)?
Its IC50 is 0.2 µM.

For `COc1cc(/C=C2\N=C(c3ccccc3)N(n3c(SCC(=O)NO)nnc3-c3ccccc3)C2=O)ccc1O`, which GI50 (MCF7 [12]) is on record?
The GI50 was 24.9 µM.

And the IC50 (Histone deacetylase)?
Its IC50 is 0.09 µM.

Which results are given for `Cn1cnc(-c2ccc(F)cc2)c1-c1ccc(/C=C/C(=O)NO)cc1`?
IC50 (518A2): 0.3 µM; IC50 (HCT-116): 0.3 µM; IC50 (PANC-1): 0.3 µM; IC50 (HT-29): 0.3 µM; IC50 [9]: 0.3 µM; IC50 (KB-V1): 0.3 µM; IC50 [10]: > 150 µM

Which IC50 (MCF7 [1]) does the source give for `C[C@H]1[C@@H](NC(=O)CCCCCCCC(=O)NO)O[C@@H]2O[C@@]3(C)CC[C@H]4[C@H](C)CC[C@@H]1[C@@]24OO3` here?
Its IC50 is 1.28 µg/mL.

What about the IC50 (HepG2) of the same molecule?
Its IC50 is 1.28 µg/mL.

And the IC50 (HL-60)?
Its IC50 is 1.28 µg/mL (≈ 2.73 µM).

Which results are given for `CC(C)=CCC/C(C)=C/CC/C(C)=C/CSc1ccccc1C(=O)NCCC(=O)NO`?
IC50 (MCF7 [1]): 4.93 µM; IC50 (HepG2): 4.93 µM; IC50 (SMMC-7721): 4.93 µM; IC50 (NCI-H460): 4.93 µM; IC50 (EJ): 4.93 µM

Which IC50 (RPMI-8226) does the source give for `CCCCCCSc1ncc(C(=O)NO)c(N(Cc2ccccc2)S(=O)(=O)c2ccc(OC)cc2)n1` here?
Its IC50 is > 7.8 µM.

For `O=C(/C=C/c1ccc(CN2C(=O)C3(OCCO3)c3ccccc32)cc1)NO`, which IC50 (PC-3 [2]) is on record?
Its IC50 is > 3.05 µM.

What about the IC50 (SW-620 [3]) of the same molecule?
The IC50 was > 3.05 µM.

What about the IC50 (ASPC1) of the same molecule?
Its IC50 is > 3.05 µM.

For `COc1cccc2c1C(=O)c1c(O)c3c(c(O)c1C2=O)C[C@@](O)(C(=O)CO)C[C@@H]3O[C@H]1C[C@H](N)[C@H](O)[C@H](C)O1` [DOXORUBICIN HYDROCHLORIDE], which GI50 (MCF7 [12]) is on record?
The GI50 was 50.2 µM.

With `NC(=O)N1N=C(c2ccccc2)CC1c1ccccc1OCC(=O)NO` (stereo not drawn) as the molecule, how does the IC50 (U-937) read?
The IC50 was 18.7 µM.

And the IC50 (K562)?
The IC50 was 18.7 µM.

What about the IC50 (PLC-PRF-5) of the same molecule?
The IC50 was 18.7 µM.

And the IC50 (PC-3 [2])?
Its IC50 is 18.7 µM.

What about the IC50 (ES-2) of the same molecule?
The IC50 was 18.7 µM.

What about the IC50 (HepG2) of the same molecule?
The IC50 was 18.7 µM.

What does the source list for `Cc1nc2ccc(Cl)cc2c(=O)n1Cc1ccc(C(=O)NO)cc1`?
IC50 (PC-3 [2]): 0.62 µM; IC50 (Histone deacetylase): 0.76 µM; IC50 (SW-620 [3]): 0.62 µM; Ratio IC50 (SW-620 [4]): >3; Ratio IC50 (PC-3 [5]): >3; IC50 (NCI-H23 [6]): 0.62 µM; Ratio IC50 (NCI-H23 [7]): >3

With `O=C(CCCCCCC(=O)Nc1ccccc1)NO` [VORINOSTAT] as the molecule, how does the Activity (MDA-MB-231 [8]) read?
Its Activity is 40%.

For `CC(C)C[C@H](NC(=O)[C@@H](O)[C@H](N)Cc1ccccc1)C(=O)O` [UBENIMEX], which IC50 (U-937) is on record?
Its IC50 is > 500 µM.

And the IC50 (K562)?
The IC50 was > 500 µM.

What about the IC50 (PLC-PRF-5) of the same molecule?
Its IC50 is > 500 µM.

And the IC50 (PC-3 [2])?
The IC50 was > 500 µM.

And the IC50 (ES-2)?
Its IC50 is > 500 µM.

And the IC50 (HepG2)?
Its IC50 is > 500 µM.
